How the values were obtained:
[1] = target: ABCA1 (Mus musculus, UniProt P41233); assay: radiolabelled cholesterol efflux to apoA-I from murine peritoneal macrophages; format: cell-based
[2] = target: T1, breast cancer resistant protein (BCRP, ABCG2) (Homo sapiens, UniProt Q9UNQ0); assay: Hoechst […] accumulation assay in H460 cells; format: cell-based
T1 sequence (Q9UNQ0 1-655): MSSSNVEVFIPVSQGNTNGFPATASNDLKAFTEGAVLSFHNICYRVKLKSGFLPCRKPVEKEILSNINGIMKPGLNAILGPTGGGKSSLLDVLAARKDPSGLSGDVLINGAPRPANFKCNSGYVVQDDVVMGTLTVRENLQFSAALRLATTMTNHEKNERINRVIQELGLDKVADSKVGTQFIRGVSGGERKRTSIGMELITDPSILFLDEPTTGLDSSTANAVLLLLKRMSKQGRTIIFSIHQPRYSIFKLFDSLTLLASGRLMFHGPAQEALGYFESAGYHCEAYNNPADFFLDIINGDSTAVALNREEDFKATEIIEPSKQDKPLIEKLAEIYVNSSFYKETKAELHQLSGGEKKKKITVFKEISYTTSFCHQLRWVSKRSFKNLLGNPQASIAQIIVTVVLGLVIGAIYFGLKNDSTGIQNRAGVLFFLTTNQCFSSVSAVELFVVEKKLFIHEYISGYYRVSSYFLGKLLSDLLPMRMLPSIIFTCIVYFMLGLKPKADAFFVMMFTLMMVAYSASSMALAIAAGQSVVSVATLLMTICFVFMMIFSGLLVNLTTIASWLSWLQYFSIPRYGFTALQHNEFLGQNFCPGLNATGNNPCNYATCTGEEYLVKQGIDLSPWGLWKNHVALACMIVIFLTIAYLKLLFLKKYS

ABCA1, sequence (P41233 whole entry): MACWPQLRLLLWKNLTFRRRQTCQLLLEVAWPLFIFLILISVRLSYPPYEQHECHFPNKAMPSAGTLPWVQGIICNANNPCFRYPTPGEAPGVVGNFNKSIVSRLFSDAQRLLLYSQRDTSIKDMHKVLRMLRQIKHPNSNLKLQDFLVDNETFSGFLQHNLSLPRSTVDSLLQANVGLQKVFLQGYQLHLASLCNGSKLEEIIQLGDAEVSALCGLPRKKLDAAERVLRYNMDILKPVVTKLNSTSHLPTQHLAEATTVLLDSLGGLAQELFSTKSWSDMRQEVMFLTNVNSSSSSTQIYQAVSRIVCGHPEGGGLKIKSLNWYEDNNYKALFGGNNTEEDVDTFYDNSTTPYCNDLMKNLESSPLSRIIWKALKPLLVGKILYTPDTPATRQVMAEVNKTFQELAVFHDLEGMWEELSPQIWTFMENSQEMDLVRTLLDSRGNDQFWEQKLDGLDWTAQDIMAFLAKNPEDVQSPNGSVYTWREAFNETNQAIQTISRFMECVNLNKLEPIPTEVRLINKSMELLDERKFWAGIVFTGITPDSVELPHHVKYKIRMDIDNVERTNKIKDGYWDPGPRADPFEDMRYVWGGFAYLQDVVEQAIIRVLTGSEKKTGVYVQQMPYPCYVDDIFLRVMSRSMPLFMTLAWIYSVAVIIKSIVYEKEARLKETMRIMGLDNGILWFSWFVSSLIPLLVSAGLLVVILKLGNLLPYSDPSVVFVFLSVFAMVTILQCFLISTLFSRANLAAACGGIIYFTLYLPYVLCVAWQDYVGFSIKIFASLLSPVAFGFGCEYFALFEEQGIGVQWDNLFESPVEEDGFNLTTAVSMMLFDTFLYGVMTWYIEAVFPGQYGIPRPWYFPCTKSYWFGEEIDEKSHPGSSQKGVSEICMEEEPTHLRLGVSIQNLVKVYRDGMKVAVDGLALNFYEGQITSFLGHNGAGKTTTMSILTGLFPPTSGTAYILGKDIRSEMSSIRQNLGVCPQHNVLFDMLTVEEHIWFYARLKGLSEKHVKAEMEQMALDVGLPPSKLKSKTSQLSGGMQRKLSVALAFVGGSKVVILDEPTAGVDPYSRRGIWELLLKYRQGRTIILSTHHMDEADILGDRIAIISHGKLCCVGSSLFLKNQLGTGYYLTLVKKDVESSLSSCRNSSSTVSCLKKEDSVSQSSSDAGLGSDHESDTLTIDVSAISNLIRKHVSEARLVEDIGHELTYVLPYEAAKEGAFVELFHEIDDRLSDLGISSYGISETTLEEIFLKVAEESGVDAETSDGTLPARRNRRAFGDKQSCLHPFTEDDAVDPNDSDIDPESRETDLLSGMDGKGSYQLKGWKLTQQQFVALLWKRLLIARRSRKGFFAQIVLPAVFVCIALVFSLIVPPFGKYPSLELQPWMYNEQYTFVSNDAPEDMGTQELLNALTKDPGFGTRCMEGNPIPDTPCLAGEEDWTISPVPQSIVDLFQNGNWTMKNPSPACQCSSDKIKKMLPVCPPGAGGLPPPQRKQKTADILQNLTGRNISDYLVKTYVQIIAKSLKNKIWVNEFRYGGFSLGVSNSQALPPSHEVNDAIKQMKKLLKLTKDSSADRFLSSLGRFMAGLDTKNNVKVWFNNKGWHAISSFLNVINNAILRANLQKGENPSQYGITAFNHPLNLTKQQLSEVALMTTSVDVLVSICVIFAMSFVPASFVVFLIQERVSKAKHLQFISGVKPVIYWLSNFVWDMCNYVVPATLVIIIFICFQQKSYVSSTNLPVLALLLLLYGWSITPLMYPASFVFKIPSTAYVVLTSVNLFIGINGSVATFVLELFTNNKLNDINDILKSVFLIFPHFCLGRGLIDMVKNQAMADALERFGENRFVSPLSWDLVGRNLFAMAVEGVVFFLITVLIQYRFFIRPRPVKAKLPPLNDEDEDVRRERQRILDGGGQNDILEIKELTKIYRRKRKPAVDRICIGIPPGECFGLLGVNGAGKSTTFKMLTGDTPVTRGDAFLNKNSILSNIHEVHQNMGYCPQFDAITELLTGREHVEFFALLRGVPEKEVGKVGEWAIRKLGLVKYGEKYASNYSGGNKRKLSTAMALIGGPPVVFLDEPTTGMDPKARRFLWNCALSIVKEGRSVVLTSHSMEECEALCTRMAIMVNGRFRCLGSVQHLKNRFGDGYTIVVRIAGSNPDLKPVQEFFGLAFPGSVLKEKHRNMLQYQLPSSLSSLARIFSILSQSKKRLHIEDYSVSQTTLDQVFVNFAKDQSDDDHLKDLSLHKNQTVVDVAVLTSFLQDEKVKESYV

CC(C)(Sc1cc(C(C)(C)C)c(O)c(C(C)(C)C)c1)Sc1cc(C(C)(C)C)c(O)c(C(C)(C)C)c1 [probucol]
radiolabelled cholesterol efflux to apoA-I from murine peritoneal macrophages [1]: probucol, the lead compound, significantly inhibited in a dose-dependent manner the ABCA1 activity

COc1ccc2c3c([nH]c2c1)[C@H](C=C(C)C)N1C(=O)[C@@H]2CCCN2C(=O)[C@@H]1C3 [fumetrimorgin C]
Hoechst 33342 accumulation assay in H460 cells [2]: the reference compound fumetrimorgin C, as expected, significantly inhibited the amount of Hoechst 33342-caused intracellular fluorescence

From publication PMC9861803, “A New ABCB1 Inhibitor Enhances the Anticancer Effect of Doxorubicin in Both In Vitro and In Vivo Models of NSCLC” (International Journal of Molecular Sciences, 2023)
